Laboratory results from patent US6355616B1, “Derivative compounds derived from or based on bactericidal/permeability-increasing protein” (priority 1999, dated 2002).

Tests used:
MDCK cells = assay: In vitro oral absorption screening, transepithelial transport across MDCK cell monolayers; format: in vitro ADME, canine
Description: For these experiments, peptide-based constructs are screened for potential oral absorption in in vitro screening assays using MDCK and/or CACO-2 cells. Briefly, cultured monolayers of Madin-Derby canine kidney epithelial (MDCK) cells (ATCC Accession No. CCL-34) and/or CACO-2 (Human colon carcinoma) cells [Audus, K. L., et al. Phar. Res., 7:435-451 (1990) are grown upon collagen-coated, permeable-filter supports (Becton Dickinson, Mountain View, Calif.). The cells are grown to confluency and allowed to differentiate (e.g., about 3 days for MDCK cells or about 21 days for CACO-2 cells). The integrity of the monolayers is determined by measuring the transepithelial resistance. The cells are incubated with a peptide-based construct on the apical side for 2.5 hours in MDCK or CACO-2 screening. The transepithelial transport of the construct is measured by quantitative HPLC analysis of the incubation media on the basolateral side of the cells (forward transport). Radiolabelled mannitol and/or cortisone are used as positive controls. In addition, the efflux of the construct is measured by quantitative HLPC analysis of the incubation media on the apical side of the cells. This follows incubation of the cells with construct on the basolateral side for 2.5 hours. […]
Following the days post seeding, the cells are ready for transport experiments. […]
Apical control wells containing 1.5 mL TM with tritiated mannitol (^3H-mannitol, 1 μCi/mL; Dupont NEN Research Products, #NET-101, Boston, Mass.) are analyzed separately for counts per minute (cpm) of tritium to test the integrity of the MDCK cell monolayers. […]

Candida albicans, SLU-1 = assay: 28-day comparative survival efficacy study in mice systemically infected with Candida albicans; format: in vivo, male DBA/2 mice; settings: mice infected iv with C. albicans SLU-1; two doses less than 5 mg/kg; initial experiments (p>0.5)
Description: Derivatized peptide-based constructs are tested for activity upon oral administration (oral activity) in a 28-day comparative survival efficacy study in mice systemically infected with Candida albicans. Specifically, male DBA/2 mice (Charles River Laboratories) six weeks of age are dosed with 7.9×10^4 Candida albicans, SLU-1 in 100 μL intravenously via the tail vein in a single dosage on day zero (0). However, other routes of administration, including intraperitoneal (ip) and subcutaneous (sc) routes may be administered. Amphotericin B will provide complete protection at 0.5 mg/kg qod (100% survival). Mortality data will be subjected to Kaplan-Meier survival analysis. All treatment groups may be considered statistically significant vs. saline at p values <0.05.
Treatment begins immediately thereafter with 400 μL oral gavage of either 0.5% dextrose, or derivative compound in 0.5% dextrose at various dosage levels (e.g., 10 mg/kg or 20 mg/kg) according to a prescribed dosing regimen (e.g. every other day for a total of eight times). Amphotericin B (Fungizone®) is administered intravenously at 0.5 mg/kg as a positive control every other day for a total of eight times. Twice-day monitoring (once daily on weekends and holidays) for mortality is performed. The animals treated with antiflngal derivative compound show improvement in mortality compared with the dextrose-treated controls, preferably statistically significant improvement (p-value of […]).

SMILES: CC[C@@H](C)[C@@H](NC(=O)[C@@H](CC(C)C)NC(=O)[C@@H](Cc1c[nH]c2ccccc12)NC(=O)[C@@H](CCCCN)NC(=O)c1ccccc1O)C(=O)N[C@H](CCC(N)=O)C(=O)N[C@H](CC(C)C)C(=O)N[C@H](Cc1ccccc1)C(=O)N[C@H](Cc1c[nH]cn1)C(=O)N[C@H](CCCCN)C(=O)N[C@H](CCCCN)C(N)=O [XMP.560]
- cell absorption in MDCK cell screening assays (MDCK cells): 2%
- In Vitro Oral Availablity Screening (%) Forward (MDCK cells; apical to basolateral, 2.5 hours, donor ~100 μg/mL): ≧2%
- In Vitro Oral Availablity Screening (%) Efflux (MDCK cells; basolateral to apical, 2.5 hours, donor ~100 μg/mL): ≧2%
- improvement in mortality compared with dextrose-treated controls (Candida albicans, SLU-1): did not exhibit statistically significant improvement
